We go through three molecules from publication PMC4335544 (Critical Care, 2015).

The nature of data set [1]: Spontaneous drug degradation in control polypropylene tubes (whole blood). It counts as in vitro ADME. To be noted: human whole blood, polypropylene tubes under agitation at 25°C, up to 48 hours; HPLC-UV or immuno-enzymatic method.
For data set [2] the following is noted: 37°C, 4.5 L/minute.
Method: Whole ECMO circuits (Maquet®, Orleans, France) comprising a Quadrox® membrane oxygenator, a centrifugal pump, a heat exchanger and PVC tubing were used for ex vivo tests. All components of the circuit were treated with heparin (Bioline coating®, Maquet). Drug-free human whole blood (800 mL) was used to prime the circuit. In order to replicate the in vivo operating conditions, the temperature of the circulating blood was set at 37°C and circuit flow rate at 4.5 L/minute.
During ex vivo ECMO runs, serial post-membrane blood samples were obtained at 30 minutes, 1 hour, 2 hours, 3 hours, 4 hours, 5 hours, 24 hours and 48 hours after drug introduction into the circuit. Until analysis, samples were kept at 4°C and plasma separated and frozen at −20°C. To determine spontaneous drug degradation, blood containing identical concentrations of the drugs studied was kept in polypropylene tubes under agitation at 25°C for the same time before measurements.
Propofol and midazolam concentrations were measured using high performance liquid chromatography with an ultra-violet detector (Waters, Milford, MA, USA).
Changes of mean drug concentrations over time were compared between control and experimental conditions by modeling using a linear mixed effect model. […] Model choice was guided by the lowest Akaike criteria value. The mixed effect model was then fitted with R software version 3.0.2 and the ‘nlme’ library [10].
The conditions of data set [3]: cited from earlier work. From the text: Vancomycin, which is the drug of choice for treating beta-lactam resistant Gram-positive bacteria, is frequently prescribed to ECMO patients.
How the values of data set [4] were obtained:
To further explore the role of temperature, oxygen exposure and PVC surfaces on propofol loss in the ECMO circuit, the following experiments were conducted. A polypropylene tube containing human whole blood was spiked with the propofol stock solution to obtain a concentration of […]. The effect of the temperature, oxygen exposure and contact with PVC surfaces were assessed by incubating the tube at 37°C, applying oxygen (1 L/minute) for 10 seconds to the preparation and by distributing the preparation into 5-cm PVC tubes, respectively. Polypropylene tubes containing blood and propofol at the same concentration were stored at room temperature and were used as controls. Propofol concentrations were measured at 0 minutes, 5 minutes, 10 minutes, 15 minutes, 20 minutes, 25 minutes, 30 minutes and 45 minutes from each preparation. These experiments were conducted in triplicate.

For data set [5] the following is noted: octanol/water; ref 13-16 (Drug Bank); cited from earlier work.

With Vancomycin, the “concentration over time in control polypropylene tubes” value (“concentration over time” below) in data set [1] was “remained stable”. For the same molecule, the “concentration in ECMO circuit, result in words” value in data set [2] (during the 48 hours of the protocol, human whole blood, immuno-enzymatic method, n = 3 circuits) is on record as “remained stable”. Also, the “decrease in concentration, used circuit” value in data set [3] (circuit which had been running for five days, ref 3 (Dagan et al.)) is recorded as 11%. The “decrease in concentration, new circuit” value in data set [3] (drug introduced in a new circuit, ref 3 (Dagan et al.)) is 36%. Besides, the “levels in ECMO circuit, result in words” value in data set [3] (ex vivo models, 24 hours, ref 20 (Mehta et al.), ref 19 (Shekar et al.)) is reported as “remained unchanged”. Also, the “decrease in concentration, neonatal and pediatric circuits” value in data set [3] (neonatal and pediatric circuits, ref 6 (Wildschut et al.)) is “up to 46%”.
As to `CC(C)c1cccc(C(C)C)c1O` [Propofol], in data set [1], the “concentration over time” value was “remained stable”. Also, the “loss of propofol on contact with PVC tubing” value in data set [4] (after 45 minutes, human whole blood distributed into 5-cm PVC tubes, propofol 2 μg/L as printed, mean of n = 3) is 85%. Further, the “loss of propofol on oxygen exposure” value in data set [4] (after 45 minutes, human whole blood in polypropylene tube, oxygen 1 L/minute for 10 seconds, propofol 2 μg/L as printed, mean of n = 3) came out at 70%. Further, the “effect of heating to 37°C on propofol concentration” value in data set [4] (polypropylene tube with human whole blood at 37°C, up to 45 minutes, n = 3) is given as “no effect”. Besides, the “baseline concentration lost in ECMO circuit” value in data set [2] (30 minutes after introduction, Maquet circuit, Quadrox oxygenator, PVC tubing, heparin coating, 800 mL human whole blood, propofol 2 μg/mL, HPLC-UV, mean of n = 3 circuits) stood at 70%. Besides, the “initial concentration remaining in ECMO circuit” value in data set [2] (after 5 hours, human whole blood, HPLC-UV, mean of n = 3 circuits) stood at 11%. Further, the “fraction remaining in ECMO circuit” value in data set [2] (beyond 24 hours, human whole blood, HPLC-UV, n = 3 circuits) was “negligible”. Moreover, the “Partition coefficient (log P)” value in data set [5] is listed as 4.0.
Take `Cc1ncc2n1-c1ccc(Cl)cc1C(c1ccccc1F)=NC2` [Midazolam]: the “concentration over time” value in data set [1] is given as “remained stable”. Moreover, in data set [2] (at 30 minutes, human whole blood, HPLC-UV, mean of n = 3 circuits), the “baseline concentration detected in ECMO circuit” value is reported as 54%. For the same molecule, the “baseline concentration remaining in ECMO circuit” value in data set [2] (at 24 hours, human whole blood, midazolam HPLC-UV, cyclosporine immuno-enzymatic method, mean of n = 3 circuits) was 11%. Moreover, the “Partition coefficient (log P)” value in data set [5] is on record as 3.9.
